Measurements taken from PubChem BioAssay (NCI).
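In this assay, cells in 96-well plates receive the compound at five concentrations for 48 hours. Endpoints are linearly interpolated between the surrounding concentrations. TGI denotes the concentration required for complete inhibition of growth.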

What was measured:
Assay in all cases: NCI tumour cell line growth inhibition, 48 h
[1] = test system: A498 renal
[2] = test system: DMS 114 small cell lung
[3] = test system: KM20L2 colon
[4] = test system: M14 melanoma
[5] = test system: M19-MEL melanoma
[6] = test system: OVCAR-4 ovarian
[7] = test system: SK-MEL-5 melanoma
[8] = test system: SNB-19 CNS
[9] = test system: SNB-75 CNS
[10] = test system: SNB-78 CNS
[11] = test system: TK-10 renal
[12] = test system: RXF 393 renal

SMILES	TGI [1]	TGI [2]	TGI [3]	TGI [4]	TGI [5]	TGI [6]	TGI [7]	TGI [8]	TGI [9]	TGI [10]	TGI [11]	TGI [12]
C[C@]12CCC(=O)C=C1CC[C@@H]1[C@@H]2[C@@H](O)C[C@@]2(C)[C@H]1CC[C@]2(O)C(=O)COC(=O)COCC(=O)O	> 100 µM	> 100 µM	> 100 µM	> 100 µM	> 100 µM	> 100 µM	> 100 µM	> 100 µM	> 100 µM	> 100 µM	> 100 µM	
CN(C)c1ccc(C(=C(c2ccc(N(C)C)cc2)c2ccc(N(C)C)cc2)c2ccc(N(C)C)cc2)cc1	36.8 µM	49.3 µM	42.4 µM	22 µM	70.9 µM	> 100 µM	31.8 µM	29.4 µM	27.8 µM	> 100 µM	31.5 µM	25.2 µM
COc1cc2c(cc1OC)C(C(CO)CO)N(CC(O)CCl)CC2 (stereo not given)	> 100 µM		> 100 µM	> 100 µM	> 100 µM	> 100 µM	> 100 µM	> 100 µM	> 100 µM	> 100 µM	> 100 µM	
O=C(/N=C/c1c(O)c2ccccc2oc1=O)Nc1ccccc1	> 100 µM	> 100 µM	> 100 µM	> 100 µM	> 100 µM	> 100 µM	> 100 µM	> 100 µM	83.5 µM	> 100 µM	> 100 µM	91.8 µM
O=C1NC(SSC2=NNC3(C(=O)N2)c2ccccc2-c2ccccc23)=NNC12c1ccccc1-c1ccccc12	> 10 µM			> 10 µM		> 10 µM	> 10 µM	> 10 µM	> 10 µM		> 10 µM	> 10 µM
COc1ccc(-c2cc(=O)c3cc4c(cc3[nH]2)OCO4)cc1OC		> 100 µM	> 100 µM	> 100 µM	> 100 µM	> 100 µM	> 100 µM	> 100 µM	> 100 µM	> 100 µM	> 100 µM	> 100 µM
COC(=O)/C=C\n1c(C)cc(=O)[nH]c1=O	> 100 µM			> 100 µM		> 100 µM	> 100 µM	> 100 µM	> 100 µM		> 100 µM	> 100 µM
N#CC1=C(N)n2c(s/c(=C\c3ccc(Cl)cc3)c2=O)=C(c2nc3ccccc3[nH]2)C1c1ccc(Cl)cc1 (stereo not given)	4.29 µM	4.37 µM	6.06 µM	11.5 µM	9.15 µM	5.22 µM	11.3 µM	> 100 µM	17.8 µM		2.62 µM	
O=S(=O)(O)c1cc(O)c2c(N=Cc3ccccc3O)cc(S(=O)(=O)O)cc2c1	> 100 µM			> 100 µM		> 100 µM	> 100 µM	> 100 µM	> 100 µM		> 100 µM	> 100 µM
NC(N)=N/N=C/c1nc2n(c1[N+](=O)[O-])CCS2	> 100 µM			> 100 µM		41 µM	34.4 µM	> 100 µM	60.2 µM		> 100 µM	65.3 µM
CC1=Nc2nc(Cl)cn2C(=O)C1(Cl)Cl	> 10 µM			> 10 µM		> 10 µM	> 10 µM	> 10 µM	> 10 µM		> 10 µM	> 10 µM
CN(CCn1cnc2c1c(=O)n(C)c(=O)n2C)C1CCCCC1	> 100 µM			> 100 µM		> 100 µM	> 100 µM	> 100 µM	> 100 µM		> 100 µM	> 100 µM
O=c1[nH]c(=O)n(C2OC(COP(=O)(O)OP(=O)(O)OC3OC(CO)C(O)C(O)C3O)C(O)C2O)cc1F (stereo not given)	7.43 µM	> 100 µM	> 100 µM	> 50.1 µM	59.4 µM	7.25 µM	23.7 µM	> 100 µM	> 100 µM	> 100 µM	30.4 µM	0.529 µM
CCSc1sc(=Nc2ccc(N=c3sc(C)c(SC)s3)cc2)sc1-c1ccc(C)cc1	> 100 µM			> 100 µM		> 100 µM	> 100 µM	> 100 µM	> 100 µM		> 100 µM	> 100 µM
NC(CCCC(N)P(=O)(O)c1ccccc1)P(=O)(O)c1ccccc1 (stereo not given)	> 261 µM	> 261 µM	> 261 µM	> 261 µM	> 261 µM	> 261 µM		> 261 µM	> 261 µM	> 261 µM	> 261 µM	> 261 µM
Cc1[nH]c2c(c1C)S(=O)(=O)c1cc3ccccc3nc1N2	> 100 µM			62.5 µM		32.4 µM	28.8 µM	70.6 µM	45.7 µM		> 100 µM	66.8 µM
Cc1ccc(N2Cc3c(ccc4ccccc34)OP2(=O)Oc2ccc(Cl)c(C)c2)cc1 (stereo not given)	> 100 µM	> 100 µM	> 100 µM		> 100 µM	> 100 µM	> 100 µM	> 100 µM	> 100 µM	> 100 µM		> 100 µM
CC(C)OP(=O)(OC(C)C)/C(I)=N/Nc1ccc([N+](=O)[O-])cc1	> 100 µM	> 100 µM	> 100 µM	> 100 µM	> 100 µM	> 100 µM	> 100 µM	> 100 µM	> 100 µM	> 100 µM	> 100 µM	
COc1ccc2nc3ccc(OC)cc3c(SCCO)c2c1	> 100 µM			> 100 µM		> 100 µM	> 100 µM	> 100 µM	81.8 µM		> 100 µM	> 100 µM
CN(C)CCNC(=O)c1cccc2c(NCCN(C)C)c3ccccc3nc12	4.74 µM			18.6 µM		8.68 µM	13.6 µM	26.3 µM	11.1 µM		21.9 µM	14.2 µM
